Reference: PubChem BioAssay (NCI)
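Results reflect a 48-hour exposure of cells in 96-well plates to compound at five concentrations. TGI: total growth inhibition.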

Tests used:
Assay in all cases: NCI anticancer screen, dose series, 48 h
[1] = tested on: 786-0 renal
[2] = tested on: A498 renal
[3] = tested on: A549 NSCLC
[4] = tested on: ACHN renal
[5] = tested on: CAKI-1 renal
[6] = tested on: CCRF-CEM leukemia
[7] = tested on: COLO 205 colon
[8] = tested on: DMS 114 small cell lung
[9] = tested on: DMS 273 small cell lung
[10] = tested on: EKVX NSCLC
[11] = tested on: HCC-2998 colon
[12] = tested on: HCT-116 colon
[13] = tested on: HCT-15 colon
[14] = tested on: HL-60(TB) leukemia
[15] = tested on: HOP-18 NSCLC
[16] = tested on: HOP-62 NSCLC
[17] = tested on: HOP-92 NSCLC
[18] = tested on: HT29 colon
[19] = tested on: IGROV1 ovarian
[20] = tested on: K-562 leukemia
[21] = tested on: KM12 colon
[22] = tested on: KM20L2 colon
[23] = tested on: LOX IMVI melanoma
[24] = tested on: LXFL 529 NSCLC
[25] = tested on: M14 melanoma
[26] = tested on: M19-MEL melanoma
[27] = tested on: MALME-3M melanoma
[28] = tested on: MOLT-4 leukemia
[29] = tested on: NCI-H226 lung
[30] = tested on: NCI-H23 lung
[31] = tested on: NCI-H460 lung
[32] = tested on: NCI-H522 lung
[33] = tested on: OVCAR-3 ovarian
[34] = tested on: OVCAR-4 ovarian
[35] = tested on: OVCAR-5 ovarian
[36] = tested on: OVCAR-8 ovarian
[37] = tested on: RPMI-8226 leukemia
[38] = tested on: RXF 393 renal
[39] = tested on: RXF-631 renal
[40] = tested on: SF-268 CNS
[41] = tested on: SF-295 CNS
[42] = tested on: SF-539 CNS
[43] = tested on: SK-MEL-2 melanoma
[44] = tested on: SK-MEL-28 melanoma
[45] = tested on: SK-MEL-5 melanoma
[46] = tested on: SK-OV-3 ovarian
[47] = tested on: SN12C renal
[48] = tested on: SNB-19 CNS
[49] = tested on: SNB-75 CNS
[50] = tested on: SNB-78 CNS
[51] = tested on: SR leukemia
[52] = tested on: SW-620 colon
[53] = tested on: TK-10 renal
[54] = tested on: U251 CNS
[55] = tested on: UACC-257 melanoma
[56] = tested on: UACC-62 melanoma
[57] = tested on: UO-31 renal
[58] = tested on: XF 498 CNS
[59] = tested on: BT-549 breast
[60] = tested on: DLD-1 colon
[61] = tested on: DU-145 prostate
[62] = tested on: MDA-MB-231 breast
[63] = tested on: MDA-MB-435
[64] = tested on: NCI/ADR-RES ovarian
[65] = tested on: PC-3 prostate
[66] = tested on: T-47D breast

Q: For `Cc1c(C(=O)CC(=O)C(=O)NC2C3CC4CC(C3)CC2C4)[n+](=O)c2ccccc2n1[O-]` (stereo unspecified), which TGI [1] is on record?
A: > 100 µM

Q: And the TGI [2]?
A: > 100 µM

Q: What about the TGI [3] of the same compound?
A: > 100 µM

Q: What about the TGI [4] of the same compound?
A: > 100 µM

Q: What about the TGI [5] of the same compound?
A: > 100 µM

Q: What about the TGI [6] of the same compound?
A: > 100 µM

Q: What about the TGI [7] of the same compound?
A: > 100 µM

Q: And the TGI [8]?
A: > 100 µM

Q: What about the TGI [9] of the same compound?
A: > 100 µM

Q: What about the TGI [10] of the same compound?
A: > 100 µM

Q: What about the TGI [11] of the same compound?
A: > 100 µM

Q: What about the TGI [12] of the same compound?
A: > 100 µM

Q: And the TGI [13]?
A: > 100 µM

Q: And the TGI [14]?
A: > 100 µM

Q: What about the TGI [15] of the same compound?
A: > 100 µM

Q: And the TGI [16]?
A: > 100 µM

Q: And the TGI [17]?
A: > 100 µM

Q: And the TGI [18]?
A: > 100 µM

Q: What about the TGI [19] of the same compound?
A: > 100 µM

Q: And the TGI [20]?
A: > 100 µM

Q: And the TGI [21]?
A: > 100 µM

Q: And the TGI [22]?
A: > 100 µM

Q: What about the TGI [23] of the same compound?
A: > 100 µM

Q: And the TGI [24]?
A: > 100 µM

Q: And the TGI [25]?
A: > 100 µM

Q: What about the TGI [26] of the same compound?
A: > 100 µM

Q: What about the TGI [27] of the same compound?
A: > 100 µM

Q: And the TGI [28]?
A: > 100 µM

Q: What about the TGI [29] of the same compound?
A: > 100 µM

Q: And the TGI [30]?
A: > 100 µM

Q: What about the TGI [31] of the same compound?
A: > 100 µM

Q: And the TGI [32]?
A: > 100 µM

Q: And the TGI [33]?
A: 85.1 µM

Q: And the TGI [34]?
A: > 100 µM

Q: And the TGI [35]?
A: > 100 µM

Q: And the TGI [36]?
A: > 100 µM

Q: What about the TGI [37] of the same compound?
A: > 100 µM

Q: And the TGI [38]?
A: > 100 µM

Q: What about the TGI [39] of the same compound?
A: > 100 µM

Q: What about the TGI [40] of the same compound?
A: > 100 µM

Q: And the TGI [41]?
A: > 100 µM

Q: And the TGI [42]?
A: > 100 µM

Q: What about the TGI [43] of the same compound?
A: > 100 µM

Q: What about the TGI [44] of the same compound?
A: > 100 µM

Q: And the TGI [45]?
A: > 100 µM

Q: And the TGI [46]?
A: > 100 µM

Q: And the TGI [47]?
A: > 100 µM

Q: What about the TGI [48] of the same compound?
A: > 100 µM

Q: And the TGI [49]?
A: > 100 µM

Q: And the TGI [50]?
A: > 100 µM

Q: What about the TGI [51] of the same compound?
A: > 100 µM

Q: What about the TGI [52] of the same compound?
A: > 100 µM

Q: And the TGI [53]?
A: > 100 µM

Q: And the TGI [54]?
A: > 100 µM

Q: And the TGI [55]?
A: > 100 µM

Q: What about the TGI [56] of the same compound?
A: > 100 µM

Q: What about the TGI [57] of the same compound?
A: > 100 µM

Q: And the TGI [58]?
A: > 100 µM

Q: Which results are given for `c1ccc2c(NCCCCCCCCNc3c4ccccc4nc4ccccc34)c3ccccc3nc2c1`?
A: TGI [1]: 1.95 µM; TGI [2]: 2.68 µM; TGI [4]: 1.82 µM; TGI [59]: 2.76 µM; TGI [5]: 2.18 µM; TGI [6]: 2.15 µM; TGI [7]: 1.61 µM; TGI [60]: 2.4 µM; TGI [8]: 2.42 µM; TGI [9]: 1.26 µM; TGI [61]: 1.94 µM; TGI [10]: 2.8 µM; TGI [11]: 3.61 µM; TGI [12]: 1.26 µM; TGI [13]: 2.48 µM; TGI [15]: 5.19 µM; TGI [16]: 2.24 µM; TGI [17]: 2.87 µM; TGI [18]: 1.57 µM; TGI [19]: 1.8 µM; TGI [21]: 1.59 µM; TGI [22]: 2.55 µM; TGI [24]: 1.81 µM; TGI [25]: 2.52 µM; TGI [26]: 2.27 µM; TGI [27]: 2.63 µM; TGI [62]: 1.74 µM; TGI [63]: 2.35 µM; TGI [29]: 2.59 µM; TGI [30]: 1.73 µM; TGI [31]: 1.33 µM; TGI [32]: 1.88 µM; TGI [64]: 41.9 µM; TGI [33]: 3.22 µM; TGI [34]: 2.41 µM; TGI [35]: 2.2 µM; TGI [36]: 2.45 µM; TGI [65]: 1.67 µM; TGI [38]: 0.387 µM; TGI [39]: 1.93 µM; TGI [40]: 2.1 µM; TGI [41]: 2.21 µM; TGI [42]: 1.15 µM; TGI [43]: 2.23 µM; TGI [45]: 2.71 µM; TGI [46]: 2.71 µM; TGI [47]: 2.18 µM; TGI [48]: 3.43 µM; TGI [49]: 2.62 µM; TGI [51]: 0.755 µM; TGI [52]: 1.71 µM; TGI [66]: 3.2 µM; TGI [53]: 5.98 µM; TGI [54]: 2.09 µM; TGI [55]: 3.02 µM; TGI [56]: 2.19 µM; TGI [57]: 2.76 µM; TGI [58]: 2.25 µM
